# Assay results: PubChem BioAssay AID256 (DTP/NCI, 2004)
# Several values for one entry are separate records, joined by “and”; a condition that tells them apart may be missing. Identical values can stand only once. Inconclusive results and toxic doses are left out.
# Tested on: CD2F1 mice, L1210 leukemia ip, survival T/C
# Assay: NCI In Vivo Anticancer Drug Screen. Data for tumor model L1210 Leukemia (intraperitoneal) in CD2F1 (CDF1) mice
# Details: higher = longer survival
# Description: The antitumor activity of compounds was measured in mice bearing transplantable tumors. Survival or tumor size were measured and the results are expressed as the measurement made in the treated group (T) divided by the measurement made in the vehicle treated control group (C). The tumor model used in this assay is L1210 Leukemia (intraperitoneal) in CD2F1 (CDF1) mice
# [1] = endpoint: mean survival time, dose: 100.0 mg/kg/injection, schedule: Q01DX009 (ip), vehicle: saline
# [2] = endpoint: mean survival time, dose: 200.0 mg/kg/injection, schedule: Q01DX009 (ip), vehicle: saline
# [3] = endpoint: mean survival time, dose: 400.0 mg/kg/injection, schedule: Q01DX009 (ip), vehicle: saline
# [4] = endpoint: mean survival time, dose: 100.0 mg/kg/injection, schedule: Q04DX002 (ip), vehicle: saline with Tween-80
# [5] = endpoint: mean survival time, dose: 100.0 mg/kg/injection, schedule: Q01DX009 (ip), vehicle: saline with Tween-80
# [6] = endpoint: mean survival time, dose: 200.0 mg/kg/injection, schedule: Q01DX009 (ip), vehicle: saline with Tween-80
smiles,measurement,setting,value
CC(C)CC(NC(=O)C(CSC(c1ccccc1)(c1ccccc1)c1ccccc1)NC(c1ccccc1)(c1ccccc1)c1ccccc1)C(=O)O (stereo not given),T/C,"endpoint: mean survival time, dose: 50.0 mg/kg/injection, schedule: Q01DX009 (ip), vehicle: saline",97 % of control
same,T/C,[1],91 % of control
same,T/C,[2],92 % of control
same,T/C,[3],91 % of control
O=C(Cn1ccc(=O)[nH]c1=O)c1cc2ccccc2[nH]1,T/C,[4],93 % of control
same,T/C,"endpoint: mean survival time, dose: 200.0 mg/kg/injection, schedule: Q04DX002 (ip), vehicle: saline with Tween-80",93 % of control
same,T/C,"endpoint: mean survival time, dose: 400.0 mg/kg/injection, schedule: Q04DX002 (ip), vehicle: saline with Tween-80",93 % of control
CCSC(=S)S,T/C,"endpoint: mean survival time, dose: 75.0 mg/kg/injection, schedule: Q04DX003 (ip), vehicle: saline",104 % of control
same,T/C,"endpoint: mean survival time, dose: 150.0 mg/kg/injection, schedule: Q04DX003 (ip), vehicle: saline",98 % of control
same,T/C,"endpoint: mean survival time, dose: 300.0 mg/kg/injection, schedule: Q04DX003 (ip), vehicle: saline",104 % of control
COC(=O)COc1ccccc1Cl,T/C,"endpoint: mean survival time, dose: 100.0 mg/kg/injection, schedule: Q01DX001 (ip), vehicle: saline with Tween-80",102 % of control
same,T/C,"endpoint: mean survival time, dose: 200.0 mg/kg/injection, schedule: Q01DX001 (ip), vehicle: saline with Tween-80",102 % of control
same,T/C,"endpoint: mean survival time, dose: 400.0 mg/kg/injection, schedule: Q01DX001 (ip), vehicle: saline with Tween-80",104 % of control
CCCCCCCC/C=C/CCCCCCCC(=O)NCCCCCCNC(=O)CCCCCCC/C=C/CCCCCCCC,T/C,"endpoint: mean survival time, dose: 100.0 mg/kg/injection, schedule: Q01DX001 (ip), vehicle: other",94 % of control
same,T/C,"endpoint: mean survival time, dose: 200.0 mg/kg/injection, schedule: Q01DX001 (ip), vehicle: other",97 % of control
same,T/C,"endpoint: mean survival time, dose: 400.0 mg/kg/injection, schedule: Q01DX001 (ip), vehicle: other",102 % of control
CCO/N=C(\N)c1ccccc1,T/C,"endpoint: mean survival time, dose: 50.0 mg/kg/injection, schedule: Q01DX009 (ip), vehicle: saline with Tween-80",106 % of control
same,T/C,"endpoint: mean survival time, dose: 100.0 mg/kg/injection, schedule: Q01DX001 (ip), vehicle: saline",111 % of control
same,T/C,[5],98 % of control
same,T/C,"endpoint: mean survival time, dose: 200.0 mg/kg/injection, schedule: Q01DX001 (ip), vehicle: saline",108 % of control
same,T/C,[6],100 % of control
same,T/C,"endpoint: mean survival time, dose: 400.0 mg/kg/injection, schedule: Q01DX001 (ip), vehicle: saline",104 % of control
C(=N\N=C(c1ccccc1)c1ccccc1)/c1ccc2c(c1)CCC2,T/C,"endpoint: mean survival time, dose: 100.0 mg/kg/injection, schedule: Q04DX003 (ip), vehicle: saline with Tween-80",87 % of control
same,T/C,"endpoint: mean survival time, dose: 200.0 mg/kg/injection, schedule: Q04DX003 (ip), vehicle: saline with Tween-80",95 % of control
same,T/C,"endpoint: mean survival time, dose: 400.0 mg/kg/injection, schedule: Q04DX003 (ip), vehicle: saline with Tween-80",91 % of control
O=C(NC(=S)Nc1cccc(O)c1)c1cccc(Br)c1,T/C,[5],96 % of control
same,T/C,[6],96 % of control
same,T/C,"endpoint: mean survival time, dose: 400.0 mg/kg/injection, schedule: Q01DX009 (ip), vehicle: saline with Tween-80",97 % of control
O=C(O)C(O)C(O)C(O)C(O)C(=O)O.[NH-]C1CCCCC1[NH-].[Pt+2] (stereo not given),T/C,"endpoint: median survival time, dose: 6.25 mg/kg/injection, schedule: Q04DX003 (ip), vehicle: saline",116 % of control and 112 % of control
same,T/C,"endpoint: median survival time, dose: 12.5 mg/kg/injection, schedule: Q04DX003 (ip), vehicle: saline",121 % of control and 123 % of control
same,T/C,"endpoint: median survival time, dose: 25.0 mg/kg/injection, schedule: Q04DX003 (ip), vehicle: saline",123 % of control
same,T/C,"endpoint: median survival time, dose: 50.0 mg/kg/injection, schedule: Q04DX003 (ip), vehicle: saline",151 % of control and 152 % of control
same,T/C,"endpoint: median survival time, dose: 100.0 mg/kg/injection, schedule: Q04DX003 (ip), vehicle: saline",167 % of control and 187 % of control
O=C(/C=C(\Br)c1ccccc1)c1ccccc1,T/C,[4],91 % of control
O=[N+]([O-])c1cccc(C2=NNC(c3cccc([N+](=O)[O-])c3)=NN2)c1,T/C,"endpoint: median survival time, dose: 50.0 mg/kg/injection, schedule: Q01DX001 (ip), vehicle: saline with Tween-80",88 % of control
same,T/C,"endpoint: median survival time, dose: 100.0 mg/kg/injection, schedule: Q01DX001 (ip), vehicle: saline with Tween-80",92 % of control
same,T/C,"endpoint: median survival time, dose: 200.0 mg/kg/injection, schedule: Q01DX001 (ip), vehicle: saline with Tween-80",94 % of control
same,T/C,"endpoint: median survival time, dose: 400.0 mg/kg/injection, schedule: Q01DX001 (ip), vehicle: saline with Tween-80",95 % of control
same,T/C,"endpoint: median survival time, dose: 800.0 mg/kg/injection, schedule: Q01DX001 (ip), vehicle: saline with Tween-80",98 % of control
CCCCN(CCCC)N=O,T/C,"endpoint: mean survival time, dose: 25.0 mg/kg/injection, schedule: Q01DX009 (ip), vehicle: Klucel (hydroxypropylcellulose) (HPC)",96 % of control
same,T/C,"endpoint: mean survival time, dose: 50.0 mg/kg/injection, schedule: Q01DX009 (ip), vehicle: Klucel (hydroxypropylcellulose) (HPC)",90 % of control
same,T/C,"endpoint: mean survival time, dose: 100.0 mg/kg/injection, schedule: Q01DX009 (ip), vehicle: Klucel (hydroxypropylcellulose) (HPC)",98 % of control
CC(=[N-])CC(C)=O.CC(=[N-])CC(C)=O.[Cu+2],T/C,"endpoint: mean survival time, dose: 3.13 mg/kg/injection, schedule: Q01DX009 (ip), vehicle: saline with Tween-80",100 % of control
same,T/C,"endpoint: mean survival time, dose: 6.25 mg/kg/injection, schedule: Q01DX009 (ip), vehicle: saline with Tween-80",95 % of control
same,T/C,"endpoint: mean survival time, dose: 12.5 mg/kg/injection, schedule: Q01DX009 (ip), vehicle: saline with Tween-80",90 % of control
CCOC(/C=C/c1ccccc1)OCC,T/C,[1],100 % of control
same,T/C,[2],94 % of control
same,T/C,[3],103 % of control
C#CCOCC1CO1 (stereo not given),T/C,"endpoint: mean survival time, dose: 75.0 mg/kg/injection, schedule: Q01DX001 (ip), vehicle: saline",95 % of control
same,T/C,"endpoint: mean survival time, dose: 150.0 mg/kg/injection, schedule: Q01DX001 (ip), vehicle: saline",87 % of control
